Results taken from BindingDB's records for doi:10.1016/s0960-894x(01)00687-4 (Merck Research Laboratories, 2001).

Assay: Inhibition of rate of ADP-stimulated gel-filtered human platelet aggregation mediated by integrin alphaIIb beta-3 in PLAGGIN assay

Row | SMILES | IC50 [µM]
1 | O=C(O)C[C@H](NC(=O)CN1CCCC(CCc2ccc3c(n2)NCCC3)C1=O)c1cccnc1 (stereo partly drawn) [3-(2-{2-Oxo-3-[2-(5,6,7,8-tetrahydro-[1,8]naphthyridin-2-yl)-ethyl]-piperidin-1-yl}-acetylamino)-3-(S)-pyridin-3-yl-propionic acid] | > 10
2 | O=C(O)C[C@H](NC(=O)CN1CC[C@H](CCc2ccc3c(n2)NCCC3)C1=O)c1cccnc1 [3-(2-{(S)-2-Oxo-3-[2-(5,6,7,8-tetrahydro-[1,8]naphthyridin-2-yl)-ethyl]-pyrrolidin-1-yl}-acetylamino)-3-(S)-pyridin-3-yl-propionic acid] | > 10
3 | O=C(O)CCNC(=O)CNC(=O)CCCc1ccc2c(n1)NCCC2 [3-[2-(4-5,6,7,8-Tetrahydro-[1,8]naphthyridin-2-yl-butyrylamino)-acetylamino]-propionic acid] | > 10
4 | O=C(O)C[C@H](NC(=O)CN1CCN(CCc2ccc3c(n2)NCCC3)C1=O)c1cccnc1 [(S)-3-(2-{2-Oxo-3-[2-(5,6,7,8-tetrahydro-[1,8]naphthyridin-2-yl)-ethyl]-imidazolidin-1-yl}-acetylamino)-3-pyridin-3-yl-propionic acid] | 7.1
5 | O=C(O)C[C@H](NC(=O)CN1CC[C@@H](CCc2ccc3c(n2)NCCC3)C1=O)c1cccnc1 [(S)-3-(2-{(R)-2-Oxo-3-[2-(5,6,7,8-tetrahydro-[1,8]naphthyridin-2-yl)-ethyl]-pyrrolidin-1-yl}-acetylamino)-3-pyridin-3-yl-propionic acid] | > 10

Second part, the compound after the results:

Row | IC50 [µM] | SMILES
6 | > 10 | C#C[C@H](CC(=O)O)NC(=O)CN1CC[C@H](CCc2ccc3c(n2)NCCC3)C1=O [(S)-3-(2-{(S)-2-Oxo-3-[2-(5,6,7,8-tetrahydro-[1,8]naphthyridin-2-yl)-ethyl]-pyrrolidin-1-yl}-acetylamino)-pent-4-ynoic acid]
7 | > 10 | O=C(O)C[C@H](NC(=O)CNC(=O)CCCc1ccc2c(n1)NCCC2)c1cccnc1 [(S)-3-Pyridin-3-yl-3-[2-(4-5,6,7,8-tetrahydro-[1,8]naphthyridin-2-yl-butyrylamino)-acetylamino]-propionic acid]
8 | > 10 | C#C[C@H](CC(=O)O)NC(=O)CNC(=O)CCCc1ccc2c(n1)NCCC2 [(S)-3-[2-(4-5,6,7,8-Tetrahydro-[1,8]naphthyridin-2-yl-butyrylamino)-acetylamino]-pent-4-ynoic acid]
